In patent publication US20260053778A1, “USE OF NOVEL PPAR ACTIVITY MODULATOR FOR PREVENTION, AMELIORATION OR TREATMENT OF DEGENERATIVE BRAIN DISEASES” (POSTECH RESEARCH AND BUSINESS DEVELOPMENT FOUNDATION, priority 2022, published 2026):

What was measured:
[1] = Body weight and organ weight after 12 weeks of treatment; format: in vivo, mouse; details: DTMB 10 mg/kg orally, 12 weeks (3 months), versus vehicle-treated mice
Description: 5×FAD (Tg6799) mice were purchased from Jackson Laboratory (Bar Harbor, ME, USA), and male transgenic mice were mated with B6/SJL hybrid female mice. Genotyping was performed by PCR analysis of tail-cut samples. In this example, 8-week-old female mice were used for drug administration, and wild-type littermates were used as controls. All procedures related to animal behavior experiments were approved by the Institutional Animal Care and Use Committee of Pohang University of Science and Technology (POSTECH IACUC). All animal experiments were performed in accordance with the principles of the Animal Welfare Act, the PHS Animal Welfare Policy, and the NIH Guide for the Care and Use of Laboratory Animals. All mice were maintained under general conditions in the POSTECH animal facility according to institutional guidelines.
To evaluate the effect of DTMB on 5×FAD mice, DTMB (10 mg/kg) and vehicle (1% carboxymethylcellulose and 10% DMSO) were orally administered to four groups (wild type, wild type+DTMB, 5×FAD, and 5×FAD+DTMB) 6 days per week for 3 months.

[2] = tested on: primary microglia; experiment: Quantitative PCR of inflammation genes in primary microglia; format: cell-based, mouse; details: qPCR
Text: In addition, the gene expression levels of Il-6. Il-1 #, and iNOS, which are NF-κB target genes related to chronic inflammation, and Arg-1, an anti-inflammatory marker, were confirmed by quantitative PCR (qPCR) analysis in primary microglia.
Total RNA was isolated using TRI reagent (Molecular Research Center, Cincinnati, OH, USA). RNA was reverse transcribed using the ImProm-II Reverse Transcription System (Promega) according to the manufacturer's instructions. For detection and quantification, the StepOnePlus Real-Time PCR System (Applied Biosystems, Foster City, CA, USA) was used with FastStart Universal SYBR Green Master (Roche, Basel, Switzerland). Real-time qPCR data were analyzed using the comparative CT method.

[3] = tested on: BV2 microglial cell line; experiment: Cytokine ELISA in BV2 microglia; format: cell-based, mouse; details: BV2 treated with LPS or Aβ aggregates, DTMB 24 h
Description: To confirm a more clear anti-inflammatory effect, the microglia cell line (BV2) and microglia isolated from mice were treated with lipopolysaccharide (LPS) and Aβ aggregates to induce an inflammatory response, and then DTMB was treated to measure the decrease in cytokine levels in microglia by DTMB treatment using ELISA.
The BV2 mouse microglia cell line was provided by Professor Seok Kyung-ho of Kyungpook National University. BV2 cells were cultured in a 5% CO2 incubator with a humidified atmosphere at 37° C. with Dulbecco's Modified Eagle Medium (DMEM) (Hyclone, Logan, UT, USA) containing 5% fetal bovine serum (FBS, Hyclone) and 50 μg/mL gentamicin (Lonza, Switzerland).
Cytokine levels (TNF-α, IL-1β, and IL-6) were measured in the media of BV2 microglia and primary microglia treated with LPS (1 μg/mL) and human Aβ1-42 (5 μg/mL). Human Aβ1-42 (AnaSpec, Fremont, CA, USA) was pre-aggregated in the culture medium for 24 h before cell treatment. BV2 cells and primary microglia were seeded in 12-well plates (SPL) at a density of 1× 10^5 cells/well in 1 mL of complete medium. After 12 h, cells were treated with LPS or human Aβ1-42 and further cultured with DTMB for 24 h. […]

[4] = tested on: 5×FAD mice; experiment: RT-PCR of adult microglia isolated from brains of treated mice; format: in vivo, mouse; details: microglia isolated from 5×FAD mice administered DTMB
Description: To elucidate whether the gliosis reduction effect of DTMB administration confirmed in Example 6 was due to functional changes in microglia, brain tissues from mice administered DTMB were extracted, microglia were isolated, and the expression of genes related to inflammation and activation in microglia was analyzed to what extent they changed.
To isolate adult microglia from the brains of 5×FAD mice treated with DTMB or vehicle, a magnetic-activated cell sorting (MACS) system was used. Whole brain tissue was dissociated to the single-cell level using the gentleMACs dissociation kit (Miltenyi Biotech, Bergisch Gladbach, Germany) according to the manufacturer's instructions. To isolate the immune cell fraction, a 47% Percoll concentration gradient was applied to the single-cell mixture and centrifuged at 2,000 rpm for 10 min. Adult microglia were isolated by LS column after incubation with anti-CD11b MicroBeads (Miltenyi Biotech). RT-PCR was performed using the isolated adult microglia to analyze the expression of microglial activation and inflammation-related genes. The sample size was 3 mice per group.

## COc1ccc(-c2cc(=O)oc3c(C)c(OC(=O)[C@H](Cc4c[nH]c5ccccc45)NC(=O)OC(C)(C)C)ccc23)cc1 [DTMB, [4-(4-Methoxyphenyl)-8-methyl-2-oxochromen-7-yl](2S)-3-(1H-indol-3-yl)-2-[(2-methylpropan-2-yl)oxycarbonylamino]propanoate]
[1]
  Body weight: no change
  Tissue weight: no change
[2]
  Expression of Il-1β: decreased
  Expression of Il-6: decreased
  Expression of anti-inflammatory marker Arg-1: induced
  Expression of iNOS: decreased
[3]
  Level of IL-6: statistically significantly reduced
  Level of TNF-α: statistically significantly reduced
[4]
  Gene expression of Cxcl10: decreased
  Gene expression of IL-1β: decreased
  Gene expression of IL-6: decreased
  Gene expression of Iba-1: decreased
  Gene expression of Itgax2: decreased
  Gene expression of TNF-α: decreased
  Gene expression of Trem2: decreased
  Gene expression of clec7a: decreased
